Measurements taken from US20210263122A1, “RATIOMETRIC PULSED CEST IMAGING” (BRACCO IMAGING S.P.A., priority 2015, published 2021).

Tests used:
[1] = Chemical exchange rate (kex) of amide protons from 1H-NMR linewidth; type: physicochemical
Protocol: High-resolution 1H-NMR spectra were recorded on a Bruker Avance 600 spectrometer (Bruker BioSpin Rheinstetten, Germany) operating at 14 T (corresponding to a proton Larmor frequency of 600.13 MHz) equipped with a Z-gradient 5 mm inverse probe. Sample temperature control was monitored within +/−0.1 K by means of the BTO2000 variable temperature unit. 1H NMR spectra to measure the linewidth of exchangeable protons were obtained by means of a pulse sequence using water suppression by excitation sculpting with gradients (T. L. Hwang, A. J. Shaka Water Suppression That Works. Excitation Sculpting Using Arbitrary Wave-Forms and Pulsed-Field Gradients, J. Magn. Reson. Ser. A, 1995, 112(3), 275-279). The carrier frequency was carefully set on resonance to the water signal. Simple “excite-detect” acquisitions (typical parameters: 16 ppm spectral window, 32 k complex data points, 3 s relaxation delay, and 64 averaged FIDs) were carried out to measure the linewidths of the exchangeable amide protons at 310 K. In vitro studies were performed by preparing 30 mM solutions of Iodixanol in aqueous phosphate buffer solution (10 mM), with the pH adjusted within the 5.5-7.4 range by addition of aliquots of HCl/NaOH. Capillaries containing the solutions were transferred into a 5 mm NMR tube filled with D2O for field-frequency lock.
Exchange rate values analogously assessed in the pH range of from 5.4 to 7.9 for some radiographic contrast agents according to the invention are provided in the following Table 3.

[2] = 7.05 T, 310 K, pH 7.4; cited from earlier work

| Compound | Kex ([1]; pH 5.5, 310K) [s⁻¹] | Kex ([1]; pH 6.0, 310K) [s⁻¹] | Kex ([1]; pH 6.3, 310K) [s⁻¹] | Kex ([1]; pH 6.7, 310K) [s⁻¹] | Kex ([1]; pH 7.0, 310K) [s⁻¹] | Kex ([1]; pH 7.4, 310K) [s⁻¹] | Kex ([1]; pH 7.9, 310K) [s⁻¹] | Kex ([1]; physiological conditions, Example 1) | averaged Kex exchange rate of amide mobile protons [2] |
| --- | --- | --- | --- | --- | --- | --- | --- | --- | --- |
| CN(C(=O)CO)c1c(I)c(C(=O)NCC(O)CO)c(I)c(C(=O)NCC(O)CO)c1I (stereo not drawn) [Iomeprol] | 30 | 88 | 164 | 430 | 794 | 1831 | 4389 |  |  |
| CC(=O)N(CC(O)CO)c1c(I)c(C(=O)NCC(O)CO)c(I)c(C(=O)NCC(O)CO)c1I (stereo not drawn) [Iohexol] | 22 | 69 | 139 | 372 | 923 | 1609 | 4056 |  |  |
| O=C(NCC(O)CO)c1c(I)c(C(=O)NCC(O)CO)c(I)c(N(CCO)C(=O)CO)c1I (stereo not drawn) [Ioversol] | 22 | 66 | 118 | 292 | 913 | 1628 | 3660 |  |  |
| CC(=O)N(CC(O)CN(C(C)=O)c1c(I)c(C(=O)NCC(O)CO)c(I)c(C(=O)NCC(O)CO)c1I)c1c(I)c(C(=O)NCC(O)CO)c(I)c(C(=O)NCC(O)CO)c1I (stereo not drawn) [Iodixanol] | 32 | 51 | 80 | 179 | 476 | 1213 | 1332 | exceeds 200 Hz |  |
| C[C@H](O)C(=O)Nc1c(I)c(C(=O)NC(CO)CO)c(I)c(C(=O)NC(CO)CO)c1I [Iopamidol] |  |  |  |  |  |  |  |  | about 2560 s^−1 |
